For series [1] the following is noted: cited from earlier work.
The format of series [2] is in vitro ADME. The protocol:
The first preliminary tests carried out in accordance with the present invention with a view to developing a matrix transdermal therapeutic system for administration of vinpocetine led to transdermal therapeutic systems (TTSs) by means of which a skin flux (permeation rate in steady state) of 0.91 μg/cm^2×h could be achieved. In order to adjust the therapeutically required concentration of 2 to 3 ng/ml of vinpocetine in a patient's plasma, a transdermal therapeutic system that is designed for an application period of 24 hours would have to have an area of about 120 cm^2. For reasons of patient acceptance, however, the surface area of a transdermal therapeutic system should be kept as small as possible and, if possible, should not exceed 40 cm^2, preferably 20 cm^2.

The conditions of series [3]: cited from earlier work; for half-life: oral administration.
The conditions of series [4]: 1% suspension of vinpocetine in ethanol and 1-menthol applied directly to human full-thickness skin in vitro; cited from earlier work.
The conditions of series [5]: pH value of 7.4; cited from earlier work.

Each structure is given as a SMILES string. Converted amounts (≈) assume the structure as drawn. Read-outs that look alike come from different tables or passages of the source.

Consider 3 compounds from patent US9486417B2, “Transdermal therapeutic system for administering lipophilic and/or sparingly skin-permeable active substances” (LTS Lohmann Therapie-Systeme AG, priority 2005, dated 2016).

As usually defined, the half-life is how long it takes for the measured level to halve. As to `CCOC(=O)C1=C[C@]2(CC)CCCN3CCc4c(n1c1ccccc41)[C@@H]32` [vinpocetine, ethyl apovincamin-22-oate], in series [1] (room temperature), the water-solubility is 0.02 µg/mL. Further, the “skin flux (permeation rate in steady state)” value in series [2] came to 0.91 μg/cm^2×h. Also, the half-life result in series [3] is listed as “one to two”. Moreover, the “time to enter the blood stream after administration” value in series [3] (oral, fasting or with meals) was “about half an hour”. Also, in series [3] (oral), the “time until excreted by the body almost completely” value was “eight”. Besides, the permeation rate in series [4] was 6.45 μg/cm^2×h.

As for `CCCN1C[C@H](CSC)C[C@@H]2c3cccc4[nH]cc(c34)C[C@H]21` [pergolide, D-6-n-propyl-8 β-methyl-mercaptomethyl-ergoline], the water-solubility in series [1] (base, 22° C.) was 0.021 µg/mL. In addition, the half-life in series [3] was 27 h.

With `COc1nc(C)nc(Cl)c1NC1=NCCN1` [moxonidine, 4-chloro-N-(4,5-dihydro-1H-imidazol-2-yl)-6-methoxy-2-methyl-5-pyrimidinamine], the water solubility in series [1] (base, 22° C.) was 1360 µg/mL (≈ 5.63 mM). Besides, the “solubility in ethanol or DMSO” value in series [1] (ethanol or DMSO) is recorded as “up to 100 mM”. Moreover, the “proportion present in cationic form” value in series [5] is recorded as “about 50%”. For the same compound, in series [3] (gastrointestinal absorption, not metabolised presystemically), the bioavailability result is given as “about 90%”. The “therapeutically required / effective plasma level” value in series [3] (patient's plasma) is “around 5.4 ng/ml”.
